According to patent US20260184710A1, “CASITAS B-LINEAGE LYMPHOMA PROTOONCOGENE B (CBL-B) DEGRADING COMPOUNDS AND ASSOCIATED METHODS OF USE” (Arvinas Operations, Inc., priority 2022, published 2026):

Tests used:
[1] = target: T1, Cbl-b (Homo sapiens, UniProt Q13191); assay: Cbl-b Degradation Method B (Nano-Glo HiBiT lytic detection); type: cell-based; conditions: Cbl-b-HiBit KI Jurkat Cells, incubated at least 6-24 hours; for DC50: half maximal degradation, read-out: Cbl-b Degredation Method B IC50; for Dmax / Cbl-b Degredation Method B Dmax (%): maximum degradation observed; for Dmax: read-out: Cbl-b Degredation Method B Dmax (%)
T1 construct: Cbl-b-HiBit KI Jurkat Cells were purchased from Promega; host or cells: Cbl-b-HiBiT knock-in Jurkat cells
Outline: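 Cbl-b-HiBiT knock-in Jurkat cells (20,000/well) were treated after ~24 h plating with an 11-point 1:3 series for 6-24 h at 37° C. Remaining Cbl-b measured by Nano-Glo HiBiT lytic luminescence. DC50 and Dmax expressed as % of control.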

[2] = target: T1, Cbl-b; assay: Cbl-b Degradation Method A (FACS, anti-Cbl-b antibody staining); type: cell-based; conditions: Cbl-b-HiBit KI Jurkat Cells, incubated at least 20 hours; for DC50: half maximal degradation, read-out: Cbl-b Degredation Method A IC50; for Dmax: Jurkat, maximum degradation observed, read-out: Cbl-b Degredation Method A Dmax (%)
Outline: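 Cbl-b-HiBit KI Jurkat cells treated with compound for at least 20 h at 37 °C, then fixed, permeabilized and stained with anti-Cbl-b antibody plus anti-rabbit AF488 secondary. Cbl-b levels read by FACS; DC50 and Dmax (percent of control) derived.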

T1 sequence (Q13191 whole entry): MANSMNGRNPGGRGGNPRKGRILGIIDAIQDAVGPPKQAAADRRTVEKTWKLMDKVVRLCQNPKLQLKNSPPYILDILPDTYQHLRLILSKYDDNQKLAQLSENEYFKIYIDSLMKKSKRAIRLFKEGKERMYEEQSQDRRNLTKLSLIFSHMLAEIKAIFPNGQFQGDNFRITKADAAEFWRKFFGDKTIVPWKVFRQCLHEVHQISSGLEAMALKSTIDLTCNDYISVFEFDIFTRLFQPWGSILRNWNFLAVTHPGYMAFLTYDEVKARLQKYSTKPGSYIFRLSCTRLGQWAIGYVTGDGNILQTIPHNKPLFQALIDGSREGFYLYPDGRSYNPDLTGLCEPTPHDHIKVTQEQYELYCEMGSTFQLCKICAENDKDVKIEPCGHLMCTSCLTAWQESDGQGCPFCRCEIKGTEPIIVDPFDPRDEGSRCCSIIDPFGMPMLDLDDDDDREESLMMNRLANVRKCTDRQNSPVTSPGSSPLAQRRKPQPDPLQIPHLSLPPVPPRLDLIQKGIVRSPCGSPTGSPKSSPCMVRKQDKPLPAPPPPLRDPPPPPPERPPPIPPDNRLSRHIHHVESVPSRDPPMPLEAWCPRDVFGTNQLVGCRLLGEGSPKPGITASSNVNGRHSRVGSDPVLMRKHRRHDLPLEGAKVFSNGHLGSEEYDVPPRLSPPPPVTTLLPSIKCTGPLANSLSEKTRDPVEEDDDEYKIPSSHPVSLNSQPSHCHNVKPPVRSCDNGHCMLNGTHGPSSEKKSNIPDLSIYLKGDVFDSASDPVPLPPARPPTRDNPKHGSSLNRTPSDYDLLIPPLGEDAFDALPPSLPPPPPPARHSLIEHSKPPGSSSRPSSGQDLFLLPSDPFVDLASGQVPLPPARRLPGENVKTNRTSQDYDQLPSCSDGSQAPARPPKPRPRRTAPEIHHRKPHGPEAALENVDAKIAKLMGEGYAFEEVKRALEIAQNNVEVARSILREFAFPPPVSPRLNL

| DC50 [1] | Dmax [1] | DC50 [2] | Dmax [2] | Cbl-b Degredation Method B Dmax (%) [1] | SMILES |
| --- | --- | --- | --- | --- | --- |
| < 5 nM | 35 to 70% | 5 to 50 nM | 35 to 70% | – | CC1CN(C[C@H]2CC[C@H](OC3CCN(c4ccc5c(n4)C(C)N(C4CCC(=O)NC4=O)C5=O)CC3)CC2)CCN1Cc1cc2c(c(C(F)(F)F)c1)CN(c1cccc([C@]3(Cc4nncn4C)C[C@@H](C#N)C3)c1)C2=O (stereo partly drawn) [Example 208, (1r,3r)-3-(3-{6-[(2-methyl-4-{[(1r,4r)-4-({1-[6-(2,6-dioxopiperidin-3-yl)-7-methyl-5-oxo-5H,6H,7H-pyrrolo[3,4-b]pyridin-2-yl]piperidin-4-yl}oxy)cyclohexyl]methyl}piperazin-1-yl)methyl]-1-oxo-4-(trifluoromethyl)-2,3-dihydro-1H-isoindol-2-yl}phenyl)-3-[(4-methyl-4H-1,2,4-triazol-3-yl)methyl]cyclobutane-1-carbonitrile] |
| > 500 nM | – | > 500 nM | – | – | Cn1cnnc1CC1(c2cccc(N3Cc4c(cc(CN5CCC(CN6CCN(c7cccc8c7C(=O)N(C7CCC(=O)NC7=O)C8=O)CC6)CC5)cc4C(F)(F)F)C3=O)c2)COC1 (stereo not drawn) [Example 88, 2-(2,6-dioxopiperidin-3-yl)-4-(4-((1-((2-(3-(3-((4-methyl-4H-1,2,4-triazol-3-yl)methyl)oxetan-3-yl)phenyl)-3-oxo-7-(trifluoromethyl)isoindolin-5-yl)methyl)piperidin-4-yl)methyl)piperazin-1-yl)isoindoline-1,3-dione] |
| > 500 nM | – | > 500 nM | – | – | Cn1cnnc1CC1(c2cccc(N3Cc4c(cc(N5CC6(CC(CCOc7ccc8c(c7)C(=O)N(C7CCC(=O)NC7=O)C8=O)C6)C5)cc4C(F)(F)F)C3=O)c2)COC1 (stereo not drawn) [Example 20, 2-(2,6-dioxo-3-piperidyl)-5-[2-[2-[2-[3-[3-[(4-methyl-1,2,4-triazol-3-yl)methyl]oxetan-3-yl]phenyl]-3-oxo-7-(trifluoromethyl)isoindolin-5-yl]-2-azaspiro[3.3]heptan-6-yl]ethoxy]isoindoline-1,3-dione] |
| 5 to 50 nM | – | 5 to 50 nM | < 35% | C (C ≤ 35) | CC1c2c(cc(CN3CCC[C@H](CN4CCN(C[C@H]5CC[C@H](OC6CCN(c7ccc8c(c7F)CN(C7CCC(=O)NC7=O)C8=O)CC6)CC5)CC4(C)C)C3)cc2C(F)(F)F)C(=O)N1c1cccc(C2(Cc3nncn3C)COC2)c1 (stereo partly drawn) [Example 276, 3-(5-(4-(((1S,4r)-4-((3,3-dimethyl-4-(((3S)-1-((1-methyl-2-(3-(3-((4-methyl-4H-1,2,4-triazol-3-yl)methyl)oxetan-3-yl)phenyl)-3-oxo-7-(trifluoromethyl)isoindolin-5-yl)methyl)piperidin-3-yl)methyl)piperazin-1-yl)methyl)cyclohexyl)oxy)piperidin-1-yl)-4-fluoro-1-oxoisoindolin-2-yl)piperidine-2,6-dione] |
| < 5 nM | > 70% | < 5 nM | > 70% | – | Cn1cnnc1CC1(c2cccc(N3Cc4c(cc(CN5CCC[C@H](CN6CCN(C[C@H]7CC[C@@H](OC8CCN(c9ccc%10c(c9F)CN(C9CCC(=O)NC9=O)C%10=O)CC8)CC7)CC6)C5)cc4C(F)(F)F)C3=O)c2)CC1 (stereo partly drawn) [Example 162, 3-[4-fluoro-1-oxo-5-(4-{[(1r,4r)-4-[(4-{[(3S)-1-{[2-(3-{1-[(4-methyl-4H-1,2,4-triazol-3-yl)methyl]cyclopropyl}phenyl)-3-oxo-7-(trifluoromethyl)-2,3-dihydro-1H-isoindol-5-yl]methyl}piperidin-3-yl]methyl}piperazin-1-yl)methyl]cyclohexyl]oxy}piperidin-1-yl)-2,3-dihydro-1H-isoindol-2-yl]piperidine-2,6-dione] |
| < 5 nM | > 70% | < 5 nM | > 70% | – | Cn1cnnc1CC1(c2cccc(N3Cc4c(cc(CN5CCC[C@H](CN6CCN(C[C@H]7CC[C@@H](OC8CCN(c9ccc%10c(c9Cl)CN(C9CCC(=O)NC9=O)C%10=O)CC8)CC7)CC6)C5)cc4C(F)(F)F)C3=O)c2)COC1 (stereo partly drawn) [Example 165, 3-[4-chloro-1-oxo-5-(4-{[(1r,4r)-4-[(4-{[(3S)-1-{[2-(3-{3-[(4-methyl-4H-1,2,4-triazol-3-yl)methyl]oxetan-3-yl}phenyl)-3-oxo-7-(trifluoromethyl)-2,3-dihydro-1H-isoindol-5-yl]methyl}piperidin-3-yl]methyl}piperazin-1-yl)methyl]cyclohexyl]oxy}piperidin-1-yl)-2,3-dihydro-1H-isoindol-2-yl]piperidine-2,6-dione] |
| > 500 nM | – | > 500 nM | – | – | Cn1cnnc1CC1(c2cccc(N3Cc4c(cc(N5CCC6(C5)CN(c5ccc7c(c5)C(=O)N(C5CCC(=O)NC5=O)C7=O)C6)cc4C(F)(F)F)C3=O)c2)COC1 (stereo not drawn) [Example 127, 2-(2,6-dioxopiperidin-3-yl)-5-{6-[2-(3-{3-[(4-methyl-4H-1,2,4-triazol-3-yl)methyl]oxetan-3-yl}phenyl)-3-oxo-7-(trifluoromethyl)-2,3-dihydro-1H-isoindol-5-yl]-2,6-diazaspiro[3.4]octan-2-yl}-2,3-dihydro-1H-isoindole-1,3-dione] |
| < 5 nM | 35 to 70% | 5 to 50 nM | 35 to 70% | – | Cn1cnnc1CC1(c2cccc(N3Cc4c(cc(CN5CCN(C[C@H]6CC[C@H](OC7CCN(c8ccc9c(c8)C(=O)N(C8CCC(=O)NC8=O)C9=O)CC7)CC6)CC5)cc4C(F)(F)F)C3=O)c2)COC1 (stereo partly drawn) [Example 22, 2-(2,6-dioxo-3-piperidyl)-5-[4-[4-[[4-[[2-[3-[3-[(4-methyl-1,2,4-triazol-3-yl)methyl]oxetan-3-yl]phenyl]-3-oxo-7-(trifluoromethyl)isoindolin-5-yl]methyl]piperazin-1-yl]methyl]cyclohexoxy]-1-piperidyl]isoindoline-1,3-dione] |
| < 5 nM | – | 50 to 500 nM | 35 to 70% | C (C ≤ 35) | C[C@@H]1c2nc(N3CCC(O[C@H]4CC[C@H](CN5CCN(Cc6cc7c(c(C(F)(F)F)c6)CN(c6cccc(C8(Cc9nncn9C)CC(C#N)C8)c6)C7=O)C(C)(C)C5)CC4)CC3)ccc2C(=O)N1C1CCC(=O)NC1=O (single isomer, unassigned) [Example 306, (1r***,3r***)-3-(3-{6-[(2,2-dimethyl-4-{[(1r**,4r**)-4-({1-[(7R*)-6-(2,6-dioxopiperidin-3-yl)-7-methyl-5-oxo-5H,6H,7H-pyrrolo[3,4-b]pyridin-2-yl]piperidin-4-yl}oxy)cyclohexyl]methyl}piperazin-1-yl)methyl]-1-oxo-4-(trifluoromethyl)-2,3-dihydro-1H-isoindol-2-yl}phenyl)-3-[(4-methyl-4H-1,2,4-triazol-3-yl)methyl]cyclobutane-1-carbonitrile] |
| < 5 nM | 35 to 70% | < 5 nM | > 70% | – | Cn1cnnc1CC1(c2cccc(N3Cc4c(cc(CN5CCN(C[C@H]6CC[C@H](OC7CCN(c8ccc9c(c8F)CN(C8CCC(=O)NC8=O)C9=O)CC7)CC6)CC5)cc4C(F)(F)F)C3=O)c2)COC1 (stereo partly drawn) [Example 2, 3-[4-fluoro-1-oxo-5-(4-{[(1r, 4r)-4-[(4-{[2-(3-{3-[(4-methyl-4H-1,2,4-triazol-3-yl)methyl]oxetan-3-yl}phenyl)-3-oxo-7-(trifluoromethyl)-2,3-dihydro-1H-isoindol-5-yl]methyl}piperazin-1-yl)methyl]cyclohexyl]oxy}piperidin-1-yl)-2,3-dihydro-1H-isoindol-2-yl]piperidine-2,6-dione] |
| < 5 nM | 35 to 70% | 5 to 50 nM | 35 to 70% | – | CC1CC(CN2CCC(CC3CCN(c4ccc5c(c4)C(=O)N(C4CCC(=O)NC4=O)C5=O)CC3)CC2)CN(Cc2cc3c(c(C(F)(F)F)c2)CN(c2cccc(C4(Cc5nncn5C)COC4)c2)C3=O)C1 (stereo not drawn) [Example 94, 2-(2,6-dioxopiperidin-3-yl)-5-[4-({1-[(5-methyl-1-{[2-(3-{3-[(4-methyl-4H-1,2,4-triazol-3-yl)methyl]oxetan-3-yl}phenyl)-3-oxo-7-(trifluoromethyl)-2,3-dihydro-1H-isoindol-5-yl]methyl}piperidin-3-yl)methyl]piperidin-4-yl}methyl)piperidin-1-yl]-2,3-dihydro-1H-isoindole-1,3-dione] |
| < 5 nM | > 70% | < 5 nM | > 70% | – | COc1c(N2CCC(O[C@H]3CC[C@@H](CN4CCN(C[C@H]5CCCN(Cc6cc7c(c(C(F)(F)F)c6)CN(c6cccc(C8(Cc9nncn9C)COC8)c6)C7=O)C5)CC4)CC3)CC2)ccc2c1CN(C1CCC(=O)NC1=O)C2=O (stereo partly drawn) [Example 163, 3-[4-methoxy-1-oxo-5-(4-{[(1r,4r)-4-[(4-{[(3S)-1-{[2-(3-{3-[(4-methyl-4H-1,2,4-triazol-3-yl)methyl]oxetan-3-yl}phenyl)-3-oxo-7-(trifluoromethyl)-2,3-dihydro-1H-isoindol-5-yl]methyl}piperidin-3-yl]methyl}piperazin-1-yl)methyl]cyclohexyl]oxy}piperidin-1-yl)-2,3-dihydro-1H-isoindol-2-yl]piperidine-2,6-dione] |
